According to ChEMBL document CHEMBL1126544, “Synthesis and biological evaluation of MC 1357, a new 20-epi-23-oxa-1,25-dihydroxy-vitamin D3 analogue with potent non-classical effects” (Bioorg Med Chem Lett, 1993):

What was measured:
Rattus norvegicus = assay: Compound was evaluated for calciuric effect (urinary calcium excretion in rats) at a dose of 0.5 ug/kg/day was administered orally for 7 days: Calcium excretion in control rats receiving vehicle alone of 20 umol/day.; format: functional, Urine
U-937 [1] = assay: Concentration to induce cell differentiation in U 937 cells; format: functional, cell-based; settings: Homo sapiens
T-cell = assay: Concentration to inhibit T-cell activation in Murine MLR; format: functional, cell-based; settings: Mus musculus
U-937 [2] = assay: Concentration to inhibit cell proliferation in U 937 cells; format: functional, cell-based; settings: Homo sapiens

Row | IC50 (T-cell) [nM] | IC50 (U-937 [2]) [nM] | SMILES | Ca2+ excretion (Rattus norvegicus) [µmol/day] | Concentration (U-937 [1]) [nM]
1 | 0.05 |  | C=C1/C(=C\C=C2/CCC[C@]3(C)[C@@H]([C@H](C)CCCC(C)(C)O)CC[C@@H]23)C[C@@H](O)C[C@@H]1O [CALCITRIOL] | 83 | 2
2 | 0.0006 | 0.01 | C=C1/C(=C\C=C2/CCC[C@]3(C)[C@@H]([C@@H](C)COCCCC(C)(C)O)CC[C@@H]23)C[C@@H](O)C[C@@H]1O | 49 | 0.001
